Source: patent US5532227A, “Tetracyclines including non-antimicrobial chemically-modified tetracyclines inhibit excessive glycosylation of different types of collagen and other proteins during diabetes” (The Research Foundation of State University of New York, priority 1994, dated 1996)
Where two headings read alike, the source gives them in different places.

Columns and labels:
[1] = tested on: streptozotocin-diabetic rats; assay: Blood glucose concentration of CMT-1-treated diabetic rats (Example I, FIG. 1); type: in vivo, Sprague-Dawley rat; conditions: oral gavage, 1-10 mg/day, 21 days
Source text: Each value represents the mean ± S.E.M. for 4 rats per experimental group.
(§1) Twenty-four adult male Sprague-Dawley rats were weighed (body weight between 350-375 g) and injected through the tail vein with either 0.9% saline (nondiabetic controls, NDC) or with the same solution containing streptozotocin ([…] body weight) to induce diabetes. The diabetic rats were distributed into five experimental groups (n=4 rats per group) and daily administered by oral gavage either 0, 1, 2, 5 or 10 mg of CMT-1 (4-dedimethylaminotetracycline, a chemically-modified non-antimicrobial tetracycline) suspended in 2% carboxymethylcellulose (CMC) for 21 days. The non-diabetic control rats were gavaged with the carrier alone (2% CMC). Urine glucose levels were measured weekly with Tes-Tape (Eli Lily, Inc., Indianapolis, Ind.).
On the 21st day, the rats were weighed and anesthetized with halothane (Halocarbon Laboratories) before blood samples were collected for serum glucose (Sigma glucose oxidase kit, St. Louis, Mo.) and CMT-1 determinations. […]
(§2) The data were subject to statistical analysis. The standard error of the mean (S.E.M) was calculated from the standard deviation. The statistical significance between the groups were determined by analysis of variance while the significance of differences between groups was calculated by Tukey's test.

[2] = tested on: skin collagen; assay: Solubility of skin collagen in neutral salt and dilute acid, CMT-1 (Example I, FIGS. 2 and 3); type: in vivo, Sprague-Dawley rat; conditions: for increase of collagen solubility in neutral salt solutions / increase of collagen solubility in dilute acid solutions: vs untreated diabetics, 4° C.
Method: as §1
Skin samples were examined for collagen solubility using the techniques described previously (Golub et al., J. Periodont. Res. 12:402 (1977), Golub et al., Biochim. Biophys. Acta 534:73 (1978)) with some modifications. Except where indicated, all steps were carried out at 4° C.
Briefly, for the preparation of neutral salt-soluble collagen, minced rat skin was extracted with Tris-HCl buffer (pH 7.4) for 2 days followed by centrifugation at 11,000×g for 20 min. The pellet was subjected to an additional extraction for 18 hr and centrifuged as described above. Both supernatants were then combined and dialyzed exhaustively against 3% acetic acid for 2 days.
For the preparation of acid-soluble collagen, the pellet was further extracted with 3% acetic acid as described for the neutral salt extraction. The neutral salt and dilute acid extracts were dried with a rotatory evaporator at 60° C. under vacuum.
Following acid hydrolysis, the dried samples from the two extractions were used for neutral salt- and acid-soluble collagen determinations, while the pellet was used to determine the amount of insoluble collagen.
The amount of collagen in the three different skin fractions was also estimated. In particular, aliquots of the hydrolysates were repeatedly evaporated and reconstituted with distilled water to remove the hydrochloric acid. After removal of hydrochloric acid, the aliquots Were colorimetrically analyzed for hydroxyproline, an amino acid "marker" of collagen.
as §2

[3] = type: in vivo, Sprague-Dawley rat; conditions: for Serum CMT-1 Conc.: 21 days, mean of 4 rats ± S.E.M.; for serum concentration for individual rats: individual rats (data not shown), 30240 min
Method: as §1
On the 21st day, the rats were weighed and anesthetized with halothane (Halocarbon Laboratories) before blood samples were collected for serum glucose (Sigma glucose oxidase kit, St. Louis, Mo.) and CMT-1 determinations. The rats were then killed by exsanguination and the skin from the entire torso was dissected, weighed, and minced as described by Schneir et al., Diabetes 31:426 (1982).
The extraction and HPLC determination of the concentration of CMT-1 in rat serum was carried out as described by Yu et al., Biochem. Med. & Metabolic Biol. 47:10-20 (1992).
Serum CMT-1 concentration was assayed using the HPLC technique described by Yu et al., BioChem. Med. & Metabolic Biol. 47: 10-20 (1992). […].

[4] = tested on: serum protein; assay: Glycosylated serum proteins in diabetic rats (Example IV, FIG. 5); type: in vivo, Sprague-Dawley rat; conditions: 5 mg daily oral gavage, 21 days; effect p<0.05
Source text: (Control vs. Diabetic p<0.01, Diabetic vs. Diabetic treated with Doxycycline p<0.05, Diabetic vs. Diabetic treated with CMT-1 (4-dedimethyiaminotetracycline) p<0.05).
(§3) Sixteen adult male sprague-Dawley rats, each weighing approximately 350 grams, were divided into four groups 0f four animals per group.

[5] = tested on: skin collagen; assay: Glycosylation of skin collagen in diabetic rats, anthrone method (Example IV, FIG. 6); type: in vivo, Sprague-Dawley rat; conditions: 5 mg daily oral gavage, 21 days; effect p<0.05
Method: as §3
In addition, the entire skin was dissected from each rat. Samples containing 100mg of each skin were suspended in a Tris-HCl buffer containing 5mM CaCl2 and chromatographically-purified bacterial collagenase and incubated at 37° C. for 4 hours. Following incubation all samples were centrifugated at 35,000×G and the supernatants containing the skin collagen fragments were collected. The skin digest supernatants were analyzed for (1) carbohydrate-attached-to-collagen by the anthrone method, as described by Halhoul and Kleinberg ([…]) Anal. Biochem. 50: 337-343 and (2) total protein using the BioRad Assay, BioRad Chemical Division, Richmond, Calif.

[6] = tested on: skin collagen; assay: Glycosylation of diabetic rat skin collagen (Example V, Table IV); type: in vivo, Sprague-Dawley rat; conditions: 5 mg daily oral gavage, 21 days
Method: All animals were weighed weekly.
The subcutaneous muscle layer was removed leaving essentially the dermis. The dermis (skin connective tissue) samples were minced, then homogenized in phosphate buffered saline (4° C.). Following centrifugation (at 9000 rpm, 4° C., 30 min.) of the homogenates, the supernatants were discarded. The pellets were repeatedly washed, then resuspended and extracted at 4° C. overnight in chloroform/methanol to remove lipids. The de-lipidized tissue samples were then washed in 100% methanol, then in 50% methanol. Following the methanol washes, the samples were washed with HEPES buffer (pH 7.4). The skin connective tissue samples (100 mg of each sample) were incubated at 37° C. (24 hours) with chromatographically-purified bacterial collagenase. After 24 hours the reaction mixture was centrifuged at 7000 rpm, room temperature for 30 minutes. Following centrifugation, the supernatants containing the digested collagen were collected. Aliquots of the supernatants were analyzed for glycosylated collagen using a modification of the Isolab Glyco-PROBE™ GSP assay kit. The assay is designed to measure glucose bound to protein which was then converted by Amadori rearrangement to fructosamine. For purposes of the present invention, the sample total protein was increased to compensate for low levels of glycosylated collagen compared to glycosylated serum proteins.

[7] = tested on: streptozotocin-diabetic rats; assay: Other signs of diabetes (hyperglycemia, glucosuria, polyuria) in diabetic rats (Example III); type: in vivo, rat
Method: (§4) Streptozotocin-diabetic rats were treated by the daily oral administration of 20 mg minocycline/rat/day over a 4-week period. At the end of the protocol, 24-hour urines were collected to measure protein excretion.

[8] = tested on: streptozotocin-diabetic rats; assay: Proteinuria: urine protein excretion in diabetic rats (Example III, FIG. 4); type: in vivo, rat; conditions: recent experiments, data not shown; Golub et al. 1992 cited
Method: Example III was carried out to determine the effect of tetracycline therapy on proteinuria, a parameter of renal damage, in diabetic rats.
as §4

CC1(O)c2cccc(O)c2C(=O)C2=C(O)C3(O)C(=O)C(C(N)=O)=C(O)CC3CC21 (stereo not drawn) [CMT-1, 4-dedimethylaminotetracycline]
severity of hyperglycemia (blood glucose concentration) [1]: did not significantly alter the severity of hyperglycemia
increase of collagen solubility in neutral salt solutions ([2]; 1 mg CMT/day oral): 10%
increase of collagen solubility in dilute acid solutions ([2]; 1 mg/day oral): 18%
increase of collagen solubility in dilute acid solutions ([2]; 10 mg/day oral): 174%
increase of collagen solubility in neutral salt solutions ([2]; 10 mg/day oral): 91%
quality of collagen in the skin (inhibition of excess crosslinking) ([2]; diabetic rats, oral): normalized
Serum CMT-1 Conc. ([3]; 1 mg CMT/day oral): 0.75 ± 0.04 µg/mL
serum concentration for individual rats ([3]; 1 mg oral dose): 0.6 µg/mL
Serum CMT-1 Conc. ([3]; 2 mg CMT/day oral): 1.75 ± 0.05 µg/mL
Serum CMT-1 Conc. ([3]; 5 mg CMT/day oral): 3.90 ± 0.16 µg/mL
Serum CMT-1 Conc. ([3]; 10 mg CMT/day oral): 5.80 ± 0.25 µg/mL
serum concentration for individual rats ([3]; 10 mg oral dose): 6.5 µg/mL
fructosamine attached to serum protein (glycosylated serum protein) [4]: returned both of these parameters of abnormal glycosylation to essentially normal levels
glycosylation of skin collagen [5]: returned both of these parameters of abnormal glycosylation to essentially normal levels
mM Fructosamine/mg protein (Mean ± SE) ([6]; NDC 0.027, untreated diabetic 0.377): 0.123 ± 0.011 mM Fructosamine/mg protein
Reduction of glycosylation in treated diabetics (%) ([6]; vs untreated diabetic control): 67.4%
other signs of diabetes including hyperglycemia, glucosuria and polyuria [7]: Neither treatment with minocycline nor CMT-1 reduced the other signs of diabetes
proteinuria in diabetic rats [8]: a reduction in proteinuria
